Patent US20100247433A1, “Use of non-canonical amino acids as metabolic markers for rapidly-dividing cells” (California Institute of Technology, priority 2005, published 2010)
“Also recorded” adds a separate entry of the source. Like-named read-outs stand apart in the source and are kept apart here.

What was measured:
[1] = test system: HEK293 cells; assay: Specificity of AHA labelling of newly synthesized proteins, anti-biotin Western blot after [3+2] cycloaddition; format: cell-based; settings: 2 hrs with AHA plus inhibitor
Experimental: In embodiments using [3+2] Cycloaddition, the following exemplary protocol may be used. Briefly, AHA, Biotin-PEO-Propargylamide and the triazole ligand were prepared as described previously. The tandem featured alkyne tag was synthesized by GenScript Corporation. Biotin-Cyclooctyne is a generous gift from Carolyn Bertozzi. D10-L-leucine was purchased from Sigma. In all culture experiments, growth medium was removed from HEK293 cells, whole neuronal cultures or isolated dendrites were replaced with HEPES-buffered solution (HBS) with 2.86 mM AHA, and 2.86 mM methionine for control experiments. After incubation at 37° C., 5% CO2, cells were washed with PBS-MC (1 mM MgCl2, 0.1 mM CaCl2 in PBS) to remove excess amounts of AHA and methionine. SNS and other biochemical fractions are incubated with 2.86 mM AHA or 2.86 mM methionine under agitation at 37° C. and washed in StimBuffer after incubation. […]
(§1) To show the specificity of this technique for the detection of newly synthesized proteins, HEK293 cells were incubated for 2 hrs with AHA in the presence or absence of a protein synthesis inhibitor (Anisomycin or Cycloheximide). […] The potential for increased protein degradation was measured by examining the ubiquitin signal strength on a Western blot from whole lysates of HEK293 cells, which were treated with AHA, methionine or incubation buffer for two hours.

[2] = test system: dissociated hippocampal neurons; assay: Fluorescent tagging (TRA/FLA tag) of AHA- or HPG-incorporated proteins in neurons; format: cell-based, rat; settings: 1 hour; for incorporation into neurons (fluorescent tag detection): DIV 17, 4 mM, 1 μM TRA or FLA tag
Experimental: (§2) Dissociated hippocampal neuron cultures were prepared from newborn rat pups (PO) as outlined in (Banker and Goslin, 1990), Neurons were plated at a density of 15,000-45,000 cells/cm^2 onto poly-D-lysine coated cell culture dishes or onto poly-D-lysine and growth factor reduced matrigel (BD Biosciences) coated polycarbonate nets with a pore size of 3 μm (Transwell, Corning) for the preparation of isolated dendrites. The cultures were maintained and allowed to mature in growth medium (Neurobasal-A supplemented with B27 and GlutaMAX-1) for 14 to 21 days before use. The use of this growth medium suppressed glial proliferation, which was even more reduced by application of Ara-C (5 μM final concentration). To supplement glial neurotrophic factors, 25% conditioned growth media from glial and cortical cultures were added to the growth media. Isolated dendrites were obtained from Transwell cultures by removing the cell body layer with a sterile cell lifter after change to HBS. For immunolabeling after AHA-incorporation and cycloaddition with BiotinCyclooctyne, neurons are fixed at room temperature with 4% paraformaldehyde for 20 minutes. Fixed cultures are then treated sequentially with PBS, blocking solution (0.2% Triton X-100, 2 mg/ml BSA, 5% Sucrose, 10% normal horse serum in PBS), primary Ab in blocking solution at 4° C. overnight, PBS-Tx (0.2% Triton X-100 in PBS), Alexa488- or Alexa568-conjugated secondary Ab in blocking solution, PBS-Tx and PBS. Immunostained specimens are imaged in PBS with an Olympus confocal microscope or two-photon microscope through either a 10× or a 63× oil-immersion lens. Alexa568 is excited at 543 nm and Alexa488 at 488 nm. Images are recorded through standard emission filters at contrast settings for which the crossover between the two channels is negligible.
In certain embodiments of the invention, two or more pairs of different non-natural amino acid/labeling reagents may be used to simultaneously or sequentially label the newly synthesized proteins. […]

[3] = test system: Dissociated hippocampal cultured neurons; assay: Toxicity of AHA by gross morphology of GFP-expressing neurons; format: cell-based, rat; settings: 12 DIV neurons, 2 hrs, equimolar AHA or methionine control
Experimental: Dissociated hippocampal neuron cultures were prepared from newborn rat pups (PO) as outlined in (Banker and Goslin, 1990), Neurons were plated at a density of 15,000-45,000 cells/cm^2 onto poly-D-lysine coated cell culture dishes or onto poly-D-lysine and growth factor reduced matrigel (BD Biosciences) coated polycarbonate nets with a pore size of 3 μm (Transwell, Corning) for the preparation of isolated dendrites. The cultures were maintained and allowed to mature in growth medium (Neurobasal-A supplemented with B27 and GlutaMAX-1) for 14 to 21 days before use. […] To supplement glial neurotrophic factors, 25% conditioned growth media from glial and cortical cultures were added to the growth media. Isolated dendrites were obtained from Transwell cultures by removing the cell body layer with a sterile cell lifter after change to HBS. For immunolabeling after AHA-incorporation and cycloaddition with BiotinCyclooctyne, neurons are fixed at room temperature with 4% paraformaldehyde for 20 minutes. […] Images are recorded through standard emission filters at contrast settings for which the crossover between the two channels is negligible. […]

[4] = test system: HEK293 cells; assay: Ubiquitin signal on Western blot of whole lysates (protein degradation/misfolding); format: cell-based; settings: HEK293 cells treated two hours, compared to buffer or methionine controls
Experimental: as §1, with “Cycloheximide). After incubation, cells were lysed and subjected to [3+2]cycloaddition with the biotin-bearing alkyne-linker Biotin-PEO-Propargylamide, followed by Western blot analysis with an anti-Biotin-antibody.” for “Cycloheximide).”

[5] = test system: acute hippocampal slices; assay: AHA incorporation in acute hippocampal slices, Biotin-PEO tagging, Neutravidin, Western blot; format: cell-based, rat; settings: 400 μm slices, varying concentrations of AHA, 1.5 hours
Experimental: These slices were recovered in artificial cerebrospinal fluid (ACSF) for at least 1 hour on organotypic membranes. Upon recovery, the slices were incubated with either a mixture of ^35S Met and ^35S Cys, or varying concentrations of AHA for 1.5 hours. FIG. 3C is a Western blot analysis for AHA-incorporated proteins from acute hippocampal slices. After AHA incorporation and slice homogenization, the homogenates were subjected to [3+2]-cycloaddition with a Biotin-PEO tag, and proteins incorporating AHA (and thus subsequently labeled by the Biotin-PEO labeling moiety) were concentrated using Neutravidin-conjugated beads (which binds the Biotin-PEO labeling moiety).

[6] = test system: hippocampal dysembryoplastic neuroepithelial tumor (DNT) tissue; assay: AHA labelling of newly synthesized proteins in freshly dissected DNT tumor versus control tissue, anti-biotin Western blot; format: cell-based, human; settings: 4 mM AHA, 1 hour, 37° C., equal total protein; control lateral temporal cortex of the same patient
Experimental: FIG. 5: Detection of newly synthesized proteins in cells of acutely dissected human brain tissue. Tumor and control cells were trypsinized and triturated before incubation with 4 mM AHA for 1 hour at 37° C. After cell lysis and Cu(I)-catalyzed tagging with a biotin-FLAG-alkyne tag, samples were subjected to Neutravidin-purification to separate newly synthesized proteins from pre-existing proteins, and analyzed on a Western blot using an anti-biotin antibody. Same total protein amounts were used for both tumor and control tissue. Input: sample before affinity purification; Supernatant: unbound material after Neutravidin-purification; NA: Neutravidin.
Having obtained the proper conditions for labeling dissected tissues, Applicants repeated the experiments in freshly dissected human DNT tumor tissues and control tissues. […] As a control, non-diseased tissue (lateral temporal cortex) from the same patient was analyzed along with the DNT tissue.
Freshly dissected tumor and control tissue were obtained in operating room. To ensure optimal uptake of AHA, both tissues were trypsinized and triturated into single cells before treatment with AHA and deuterated 1-lysine. Incubation with AHA was done at 37° C. under constant agitation. The tissues were subsequently lysed in SDS and Tx-100 buffer, and the newly synthesized proteins were Neutravidin (NA)-purified. […]

[7] = test system: dendrites of hippocampal neurons; assay: Time-course of detection of newly synthesized proteins in dendrites; format: cell-based, rat
Experimental: as §2
Representative straightened dendrites of neurons (DIV 16) incubated with 4 mM AHA, 4 mM Methionine (Met) or AHA plus 40 μM anisomycin (Aniso) for time points indicated. The lookup table indicates fluorescence intensity. The left end is the proximal end, the right end is the distal end. […]

[8] = test system: mammalian cells, primary neuronal cell cultures; assay: General properties of AHA in cell cultures (previous experiments and literature); format: cell-based
[9] = test system: mammalian cells, primary neuronal cell cultures; settings: Dieterich et al. 2006, cited from earlier work

With C[C@@H]1C[C@@H]([C@H](O)CC2CC(=O)NC(=O)C2)C(=O)[C@@H](C)C1 [Cycloheximide] as the compound, how does the “anti-biotin signal of AHA-labelled proteins in the presence of the protein synthesis inhibitor” value [1] read?
The value was “No signal was detected”.

With C#CCCC(N)C(=O)O (stereo not drawn) [HPG, Homopropargylglycine] as the compound, how does the “incorporation into neurons (fluorescent tag detection)” value [2] read?
Its value is “successfully incorporated”.

Which results are given for [N-]=[N+]=NCC[C@H](N)C(=O)O [AHA, azidohomoalanine]?
toxicity to neurons (gross morphology, GFP expression in the dendritic arbor) [3]: not toxic to neurons; ubiquitination of total protein [4]: No increased ubiquitination; incorporation into newly synthesized proteins (biotinylated proteins after Neutravidin) [5]: vast enrichment of biotinylated proteins; level of protein synthesis by AHA labelling, tumor versus non-diseased tissue [6]: substantially higher in cells from tumor tissue; incorporation into neurons (fluorescent tag detection) [2]: successfully incorporated; time at which AHA incorporation was visible ([7]; DIV 16, 4 mM AHA): 10 min; time by which whole neuron soma and dendrite was filled with AHA-labeled proteins ([7]; DIV 16, 4 mM AHA): ≤ 40 min; cell toxicity [8]: not toxic even in primary neuronal cell cultures; also recorded: undetected cell toxicity; membrane permeability [8]: excellent membrane permeability; protein degradation upon introduction of AHA ([8]; E. coli and mammalian cells): no evidence of increased protein degradation; global protein synthesis rates [9]: no evidence that AHA exposure alters global protein synthesis rates; ubiquitination of total protein ([9]; compared to buffer or methionine controls): no increase in the ubiquitination; cell toxicity ([9]; incl. primary cultured postnatal neurons): not toxic to cells

Which results are given for COc1ccc(C[C@H]2NC[C@H](O)[C@H]2OC(C)=O)cc1 [Anisomycin, reference compound]?
anti-biotin signal of AHA-labelled proteins in the presence of the protein synthesis inhibitor [1]: No signal was detected; effect of the protein synthesis inhibitor on AHA incorporation ([2]; 40 μM with 4 mM AHA): completely abolished AHA incorporation; effect of the protein synthesis inhibitor on AHA labelling of dendrites ([7]; 40 μM with AHA): completely inhibited
